Measured values: patent US8889854B2, “C-17 bicyclic amines of triterpenoids with HIV maturation inhibitory activity” (priority 2012, dated 2014)

System: recombinant NL4-3 virus (Renilla luciferase in nef, Gag P373S; NLRluc)
Assay: HIV Cell Culture Assay (luciferase reporter virus in MT-2 cells)
Type: cell-based
Details: MT-2 cells infected for 4-5 days with NLRluc recombinants; luciferase activity
Protocol: MT-2 cells and 293T cells were obtained from the NIH AIDS Research and Reference Reagent Program. MT-2 cells were propagated in RPMI 1640 media supplemented with 10% heat inactivated fetal bovine serum, […]. The 293T cells were propagated in DMEM media supplemented with 10% heat inactivated fetal bovine serum (FBS), 100 units/mL penicillin G and 100 μg/mL streptomycin. The proviral DNA clone of NL4-3 was obtained from the NIH AIDS Research and Reference Reagent Program. A recombinant NL4-3 virus, in which a section of the nef gene from NL4-3 was replaced with the Renilla luciferase gene, was used as a reference virus. In addition, residue Gag P373 was converted to P373S. Briefly, the recombinant virus was prepared by transfection of the altered proviral clone of NL4-3. Transfections were performed in 293T cells using LipofectAMINE PLUS from Invitrogen (Carlsbad, Calif.), according to manufacturer's instruction. The virus was titered in MT-2 cells using luciferase enzyme activity as a marker. Luciferase was quantitated using the Dual Luciferase kit from Promega (Madison, Wis.), with modifications to the manufacturer's protocol. The diluted Passive Lysis solution was pre-mixed with the re-suspended Luciferase Assay Reagent and the re-suspended Stop & Glo Substrate (2:1:1 ratio). Fifty (50) μL of the mixture was added to each aspirated well on assay plates and luciferase activity was measured immediately on a Wallac TriLux (Perkin-Elmer). Antiviral activities of inhibitors toward the recombinant virus were quantified by measuring luciferase activity in cells infected for 4-5 days with NLRluc recombinants in the presence serial dilutions of the inhibitor. Table 1 is the key for the data in Table 2.

Row | SMILES | EC50
1 | C=C(C)[C@@H]1CC[C@]2(NCCN3C[C@@H]4C[C@H]3CO4)CC[C@]3(C)[C@H](CC[C@@H]4[C@@]5(C)CC=C(C6=CC7C(C6)C7C(=O)O)C(C)(C)[C@@H]5CC[C@]43C)[C@@H]12 (single isomer, unassigned) [Example B7] | 2.28 nM

Same assay, conditions: MT-2 cells infected for 4-5 days with NLRluc recombinants; luciferase activity; reported as group A/B

Row | SMILES | EC50
2 | C=C(C)[C@@H]1CC[C@]2(NCCN3C[C@H]4C[C@@H]3CS4(=O)=O)CC[C@]3(C)[C@H](CC[C@@H]4[C@@]5(C)CC=C(C6=CC7C(C6)C7C(=O)O)C(C)(C)[C@@H]5CC[C@]43C)[C@@H]12 (single isomer, unassigned) [Example B5] | < 100 nM

Same assay, conditions: Renilla, NL43, MT-2 cells infected for 4-5 days with NLRluc recombinants; luciferase activity

Row | SMILES | EC50
3 | C=C(C)[C@@H]1CC[C@]2(NCCN3C[C@@H]4C[C@H]3CO4)CC[C@]3(C)[C@H](CC[C@@H]4[C@@]5(C)CC=C(C6=CC7C(C6)C7C(=O)O)C(C)(C)[C@@H]5CC[C@]43C)[C@@H]12 (single isomer, unassigned) [Example B6] | 1.42 nM
4 | C=C(C)[C@@H]1CC[C@]2(NC(=O)CN3C[C@@H]4CC[C@H]3C4)CC[C@]3(C)[C@H](CC[C@@H]4[C@@]5(C)CC=C(c6ccc(C(=O)O)cc6)C(C)(C)[C@@H]5CC[C@]43C)[C@@H]12 [Example 1, 4-((1R,3aS,5aR,5bR,7aR,11aS,11bR,13aR,13bR)-3a-(2-((1S,4R)-2-azabicyclo[2.2.1]heptan-2-yl)acetamido)-5a,5b,8,8,11a-pentamethyl-1-(prop-1-en-2-yl)-2,3,3a,4,5,5a,5b,6,7,7a,8,11,11a,11b,12,13,13a,13b-octadecahydro-1H-cyclopenta[a]chrysen-9-yl)benzoic acid] | 3.65 nM
5 | C=C(C)[C@@H]1CC[C@]2(NC(=O)CN3C[C@@H]4C[C@H]3CS4(=O)=O)CC[C@]3(C)[C@H](CC[C@@H]4[C@@]5(C)CC=C(c6ccc(C(=O)O)cc6)C(C)(C)[C@@H]5CC[C@]43C)[C@@H]12 [Example 2, 4-((1R,3aS,5aR,5bR,7aR,11aS,11bR,13aR,13bR)-3a-(2-((1S,4S)-2,2-dioxido-2-thia-5-azabicyclo[2.2.1]heptan-5-yl)acetamido)-5a,5b,8,8,11a-pentamethyl-1-(prop-1-en-2-yl)-2,3,3a,4,5,5a,5b,6,7,7a,8,11,11a,11b,12,13,13a,13b-octadecahydro-1H-cyclopenta[a]chrysen-9-yl)benzoic acid] | 1.93 nM
6 | C=C(C)[C@@H]1CC[C@]2(NCCN3C[C@@H]4C[C@H]3CN4Cc3ccccc3)CC[C@]3(C)[C@H](CC[C@@H]4[C@@]5(C)CC=C(c6ccc(C(=O)O)cc6)C(C)(C)[C@@H]5CC[C@]43C)[C@@H]12 [Example 9, 4-((1R,3aS,5aR,5bR,7aR,11aS,11bR,13aR,13bR)-3a-((2-((1S,4S)-5-benzyl-2,5-diazabicyclo[2.2.1]heptan-2-yl)ethyl)amino)-5a,5b,8,8,11a-pentamethyl-1-(prop-1-en-2-yl)-2,3,3a,4,5,5a,5b,6,7,7a,8,11,11a,11b,12,13,13a,13b-octadecahydro-1H-cyclopenta[a]chrysen-9-yl)benzoic acid] | 6.09 nM
7 | C=C(C)[C@@H]1CC[C@]2(NCCN3C[C@@H]4C[C@H]3CN4)CC[C@]3(C)[C@H](CC[C@@H]4[C@@]5(C)CC=C(c6ccc(C(=O)O)cc6)C(C)(C)[C@@H]5CC[C@]43C)[C@@H]12 [Example 10, 4-((1R,3aS,5aR,5bR,7aR,11aS,11bR,13aR,13bR)-3a-((2-((1S,4S)-2,5-diazabicyclo[2.2.1]heptan-2-yl)ethyl)amino)-5a,5b,8,8,11a-pentamethyl-1-(prop-1-en-2-yl)-2,3,3a,4,5,5a,5b,6,7,7a,8,11,11a,11b,12,13,13a,13b-octadecahydro-1H-cyclopenta[a]chrysen-9-yl)benzoic acid] | 1.21 nM

Same assay, conditions: Renilla, NL43, MT-2 cells infected for 4-5 days with NLRluc recombinants; luciferase activity; reported as group A/B

Row | SMILES | EC50
8 | C=C(C)[C@@H]1CC[C@]2(NCCN3C[C@H]4C[C@@H]3CS4(=O)=O)CC[C@]3(C)[C@H](CC[C@@H]4[C@@]5(C)CC=C(C6=CC7C(C6)C7C(=O)O)C(C)(C)[C@@H]5CC[C@]43C)[C@@H]12 (single isomer, unassigned) [Example B4] | < 100 nM
9 | C=C(C)[C@@H]1CC[C@]2(NC(=O)CN3C[C@@H]4C[C@H]3CN4Cc3ccccc3)CC[C@]3(C)[C@H](CC[C@@H]4[C@@]5(C)CC=C(c6ccc(C(=O)O)cc6)C(C)(C)[C@@H]5CC[C@]43C)[C@@H]12 [Example 3, 4-((1R,3aS,5aR,5bR,7aR,11aS,11bR,13aR,13bR)-3a-(2-((1S,4S)-5-benzyl-2,5-diazabicyclo[2.2.1]heptan-2-yl)acetamido)-5a,5b,8,8,11a-pentamethyl-1-(prop-1-en-2-yl)-2,3,3a,4,5,5a,5b,6,7,7a,8,11,11a,11b,12,13,13a,13b-octadecahydro-1H-cyclopenta[a]chrysen-9-yl)benzoic acid] | < 100 nM
10 | CC(C)[C@@H]1CC[C@]2(NC(=O)CN3C[C@@H]4C[C@H]3CS4(=O)=O)CC[C@]3(C)[C@H](CC[C@@H]4[C@@]5(C)CC=C(c6ccc(C(=O)O)cc6)C(C)(C)[C@@H]5CC[C@]43C)[C@@H]12 [Example 4, 4-((1S,3aS,5aR,5bR,7aR,11aS,11bR,13aR,13bR)-3a-(2-((1S,4S)-2,2-dioxido-2-thia-5-azabicyclo[2.2.1]heptan-5-yl)acetamido)-1-isopropyl-5a,5b,8,8,11a-pentamethyl-2,3,3a,4,5,5a,5b,6,7,7a,8,11,11a,11b,12,13,13a,13b-octadecahydro-1H-cyclopenta[a]chrysen-9-yl)benzoic acid] | < 100 nM
11 | C=C(C)[C@@H]1CC[C@]2(NCCN3C[C@@H]4C[C@H]3CS4(=O)=O)CC[C@]3(C)[C@H](CC[C@@H]4[C@@]5(C)CC=C(c6ccc(C(=O)O)cc6)C(C)(C)[C@@H]5CC[C@]43C)[C@@H]12 [Example 5, 4-((1R,3aS,5aR,5bR,7aR,11aS,11bR,13aR,13bR)-3a-((2-((1S,4S)-2,2-dioxido-2-thia-5-azabicyclo[2.2.1]heptan-5-yl)ethyl)amino)-5a,5b,8,8,11a-pentamethyl-1-(prop-1-en-2-yl)-2,3,3a,4,5,5a,5b,6,7,7a,8,11,11a,11b,12,13,13a,13b-octadecahydro-1H-cyclopenta[a]chrysen-9-yl)benzoic acid] | < 100 nM
12 | C=C(C)[C@@H]1CC[C@]2(N(CCO)CCN3C[C@@H]4C[C@H]3CS4(=O)=O)CC[C@]3(C)[C@H](CC[C@@H]4[C@@]5(C)CC=C(c6ccc(C(=O)O)cc6)C(C)(C)[C@@H]5CC[C@]43C)[C@@H]12 [Example 6, 4-((1R,3aS,5aR,5bR,7aR,11aS,11bR,13aR,13bR)-3a-((2-((1S,4S)-2,2-dioxido-2-thia-5-azabicyclo[2.2.1]heptan-5-yl)ethyl)(2-hydroxyethyl)amino)-5a,5b,8,8,11a-pentamethyl-1-(prop-1-en-2-yl)-2,3,3a,4,5,5a,5b,6,7,7a,8,11,11a,11b,12,13,13a,13b-octadecahydro-1H-cyclopenta[a]chrysen-9-yl)benzoic acid] | < 100 nM
13 | C=C(C)[C@@H]1CC[C@]2(NCCN3C[C@@H]4C[C@H]3CO4)CC[C@]3(C)[C@H](CC[C@@H]4[C@@]5(C)CC=C(c6ccc(C(=O)O)cc6)C(C)(C)[C@@H]5CC[C@]43C)[C@@H]12 [Example 7, 4-((1R,3aS,5aR,5bR,7aR,11aS,11bR,13aR,13bR)-3a-((2-((1S,4S)-2-oxa-5-azabicyclo[2.2.1]heptan-5-yl)ethyl)amino)-5a,5b,8,8,11a-pentamethyl-1-(prop-1-en-2-yl)-2,3,3a,4,5,5a,5b,6,7,7a,8,11,11a,11b,12,13,13a,13b-octadecahydro-1H-cyclopenta[a]chrysen-9-yl)benzoic acid] | < 100 nM
14 | CC(C)[C@@H]1CC[C@]2(NCCN3C[C@@H]4C[C@H]3CO4)CC[C@]3(C)[C@H](CC[C@@H]4[C@@]5(C)CC=C(c6ccc(C(=O)O)cc6)C(C)(C)[C@@H]5CC[C@]43C)[C@@H]12 [Example 8, 4-((1S,3aS,5aR,5bR,7aR,11aS,11bR,13aR,13bR)-3a-((2-((1S,4S)-2-oxa-5-azabicyclo[2.2.1]heptan-5-yl)ethyl)amino)-1-isopropyl-5a,5b,8,8,11a-pentamethyl-2,3,3a,4,5,5a,5b,6,7,7a,8,11,11a,11b,12,13,13a,13b-octadecahydro-1H-cyclopenta[a]chrysen-9-yl)benzoic acid] | < 100 nM
